# From patent US11541027B2 (DelMar Pharmaceuticals, Inc., priority 2014, dated 2023)
# “Also recorded” adds a separate entry of the source.
# System: A549 (TKI-sensitive) human lung adenocarcinoma xenograft tumors
# Assay: A549 NSCLC xenograft tumor model in female Rag2 mice
# Conditions: for MTV at Day 68 / Median survival / TCR at Day 68 / TGD / TGI (%): W, F × 3; for MTV at Day 68 / Median survival / TCR at Day 68 / TGD / TGI (%) / number of animals remaining on study on day 70 / day on which a mean tumor volume of 200 mm^3 was observed / day on which a mean tumor volume of 400 mm^3 was reached / doubling time: A549 model; for TCR at Day 68: tumor control ratio; for TGD: tumor growth delay vs untreated control, doubling time 200 to 400 mm^3; for TGI (%): tumor growth inhibition; for day on which a mean tumor volume of 200 mm^3 was observed / day on which a mean tumor volume of 400 mm^3 was reached: days post-inoculation; for doubling time: mean tumor volume 200 to 400 mm^3
# Procedure: Rag2 mice bearing subcutaneous human lung adenocarcinoma xenograft tumors of either TKI-resistant (H1975) or TKI-sensitive (A549) origin were treated.
# Two human NSCLC cell lines, A549 (TKI-sensitive) and H1975 (TKI-resistant), were used as xenograft tumor models in female Rag2 mice. The mice were 6 to 8 weeks of age and weighed 18-23 grams. 10 mice were used per group.
# Cisplatin was used in normal saline at a dose of 5 mg/kg. Administration was intravenous.
# Administration was intraperitoneal.
# Treatment was initiated at a tumor volume of 100 mm^3 to 150 mm^3.
# The cells were started from a frozen vial of lab stock that were frozen down from the ATCC original vial and kept in liquid nitrogen. Cell cultures with a passage number of 3 to 10 and a confluence of 80%-90% were used. […] Cells were subcultured once weekly with a split ratio 1:3 to 1:8 and expanded.
# For cell preparation and harvesting for subcutaneous (s.c.) inoculation, the cells were rinsed briefly once with Hanks Balanced Salt Solution without calcium or magnesium. […] The cells were allowed to sit at 37° C. for a few minutes. The cells were observed under an inverted microscope until the cell layer was dispersed, fresh medium was added, 50 μL of cell suspension was taken and mixed with trypan blue (1:1), and the cells were counted and cell viability assessed by using Cellometer Auto T4. The cells were centrifuged at 200×g for 7 minutes and the supernatant was aspirated. The cells were resuspended in growth medium to obtain a concentration of 100×10^6 cells/mL. For inoculation, 5×10^6 cells were used in an injection volume of 50 μL per mouse in 1:1 Matrigel.
# On day 0, tumor cells were implanted subcutaneously into mice in a volume of 50 μL in Matrigel using a 28-gauge needle; injection of the tumor cells was in the back of the mice. Mice were randomly assigned to groups based on tumor volume.
# For administration, 5 mL of 0.9% sodium chloride for injection, USP (saline) was added to yield a DAG solution with a concentration of 8 mg/mL.
# Mice were injected with the required volume to administer the prescribed dose (mg/kg) to the animals based on individual mouse weights using a 28-gauge needle. The injection volume was 200 μL for a 20-g mouse. The mice were briefly (less than 30 seconds) restrained during intravenous injections. Dilation of the vein for intravenous injections was achieved by holding the animals under a heat lamp for a period of between 1-2 minutes.
# Mice were individually weighed and injected intraperitoneally according to body weight at the specified injection concentration (see Table 1). The injection volume was based on 200 μL per 20-g mouse. The abdominal surface was wiped down with 70% isopropyl alcohol to clean the injection site.
# Tumor growth was monitored by measuring tumor dimensions with calipers beginning on the first day of treatment. Tumor length and width measurements were obtained each Monday, Wednesday, and Friday. Tumor volumes were calculated according to the equation L×W^2/2 with the length (in mm) being defined as the longer axis of the tumor. Animals were weighed at the time of tumor measurement. Tumors were allowed to grow to a maximum of 800 mm^3 before termination.
# All animals had blood collected by cardiac puncture at termination for CBC (complete blood count) with differentiation.
# In particular, signs of ill-health were based on body weight loss, change in appetite, and behavioral signs such as altered gait, lethargy, and gross manifestations of stress.
# [1] = group 5, 6 mg/kg i.p., only 3 of 9 scheduled doses
substance,measurement,setting,value
dianhydrogalactitol,MTV at Day 68,1.5 mg/kg i.p. M,440 mm^3
same,Median survival,1.5 mg/kg i.p. M,73.5 days
same,TCR at Day 68,1.5 mg/kg i.p. M,0.69
same,TGD,1.5 mg/kg i.p. M,9 days
same,TGI (%),1.5 mg/kg i.p. M,32%
same,MTV at Day 68,3 mg/kg i.p. M,303 mm^3
same,Median survival,3 mg/kg i.p. M,82 days
same,TCR at Day 68,3 mg/kg i.p. M,0.47
same,TGD,3 mg/kg i.p. M,26 days
same,TGI (%),3 mg/kg i.p. M,55%
same,body weight / tolerability of the dosage,"6 mg/kg i.p., treatment stopped after 3 doses, A549 tumor-bearing Rag2 mice",significant body weight loss; also recorded: significant weight loss and morbidity
same,number of animals remaining on study on day 70,"group 3, 1.5 mg/kg i.p. Monday, Wednesday, Friday for 3 weeks",7/10
same,day on which a mean tumor volume of 200 mm^3 was observed,"group 3, 1.5 mg/kg i.p.",45 days
same,day on which a mean tumor volume of 400 mm^3 was reached,"group 3, 1.5 mg/kg i.p.",67 days
same,doubling time,"group 3, 1.5 mg/kg i.p.",22
same,number of animals remaining on study on day 70,"group 4, 3 mg/kg i.p. Monday, Wednesday, Friday for 3 weeks",6/10
same,day on which a mean tumor volume of 200 mm^3 was observed,"group 4, 3 mg/kg i.p.",42 days
same,day on which a mean tumor volume of 400 mm^3 was reached,"group 4, 3 mg/kg i.p.",81 days
same,doubling time,"group 4, 3 mg/kg i.p.",39
same,number of animals remaining on study on day 70,[1],8/10
same,day on which a mean tumor volume of 200 mm^3 was observed,[1],54 days
same,"hemoglobin (g/L), CBC analysis at termination, versus untreated control","groups 4 or 5 (3 or 6 mg/kg i.p.), A549 tumor-bearing Rag2 mice",Statistical significance (p<0.05)
